The source of these data is patent publication US20040063681A1, “Methods for using gold (III) complexes as anti-tumor and anti-HIV agents” (priority 2002, published 2004).

The test system of series [1] is Human Hepatocellular Carcinoma (HepG2). The series can be described thus: MTT cytotoxicity, HepG2. It is filed as cell-based. The settings on record: growth inhibition. The text has this: (§1) Human promyelocytic leukemia (HL-60), human hepatocellular carcinoma (HepG2), Human cervix epitheloid carcinoma cells (HeLa) and human oral epidermoid carcinoma cells (KB-3-1), were obtained from American Type Culture Collection (ATCC) (Rockville, Md.). The multi-drug-resistant variant KB-V1 cell line was obtained by stepwise selections for vinblastine resistance as described by Shen et al., J. Biol. Chem. 261:7762-7770 (1986)], and was generously provided by Dr Michael Gottesman (NIH, Bethesda, Md.). Human nasopharyngeal carcinoma cells (SUNE1 and its cisplatin resistance variant, CNE1) were derived from poorly differentiated NPC in Chinese patients as described by Gu et al., Chin. J. Cancer 2:270-272 (1983), and were generously provided by Dr S. W. Tsao (The University of Hong Kong, Hong Kong, PRC). Cell culture flasks and 96 well microtitre plates were from Nalge Nunc hit. Culture medium, other medium constituents and phosphate buffered saline (PBS) were obtained from Gibco BRL (Rockville, Md.). Cell Proliferation Kit I (MTT) was purchased from Roche (Mannheim, Germany).
(§2) The anti-cancer activities of the gold(III) porphyrin complexes were evaluated toward some established human cancer cell lines: promyelocytic leukemia (HL-60), hepatocellular carcinoma (HepG2), cervix epitheloid carcinoma (HeLa), epidermoid carcinoma (KB-3-1) and its multi-drug resistant variant (KB-V1), nasopharyngeal carcinoma (SUNE1) and its cisplatin-resistant variant (CNE1). The experiments were carried out by following the MTT procedure (see Mosmann et al., J. Immunol. Methods 65:55-63 (1983). The IC50 values of the gold(III) porphyrin complexes together with that of cisplatin, and KAuCl4 are provided in Table 4a; and the IC50 values of the gold(III) Schiff-base and bis(pyridyl)carboxamide complexes are shown in Table 4b. The cytotoxicity profiles of some selected gold(III) porphyrin complexes toward SUNE1 and its cisplatin-resistant variant CNE1 are also shown in FIG. 7.

Series [2] deals with HeLa cells. The series can be described thus: Confocal microscopic experiment (cell morphology, AO/EB staining). The series is classed as cell-based, human. The settings on record: 0.5 μM, 15 h incubation. The text has this:
Confocal Microscopic Experiment. By examining cell morphology using scanning confocal microscopy, the type of cell death can be recognized. The early phase of apoptosis is characterized by the formation of apoptotic bodies while the integrity of the cell membrane is maintained without cell lysis. On the contrary, necrosis is characterized by cell lysis with the internal cellular components such as DNA being exposed. Using suitable staining agents (ethidium bromide (EB) for DNA and acridine orange (AO) for cell membrane) normal, necrotic and apoptotic cells can be distinguished by laser confocal microscopy. See Chan et al., Inorg. Chem. 41:3161-3171 (2002).
The picture of the cells is depicted in FIG. 12. […] Importantly, no cellular DNA was exposed due to necrosis.

Series [3] has as its system Human Promyelocytic Leukemia (HL-60). The series can be described thus: MTT cytotoxicity, HL-60. The settings on record: growth inhibition. The series is classed as cell-based.
Source text: as §1, §2

The nature of series [4]: 1H-NMR stability experiments with GSH. It is filed as physicochemical. Conditions: 72 h. As to the method:
^1H-NMR experiments. […] The pH was adjusted to 7.4 with NaOD, and the solution was degassed for 10 min by bubbling with nitrogen to minimize oxidation of GSH. Similar experimental setup was done for Complex 1j, except this analysis was carried out in D2O only. The electronic spectra of the resulting mixtures was then monitored for 72 h.
It is known that the chemical shifts of the pyrrolic protons are sensitive to the oxidation states of the gold center, and reduction of Au(III) to Au(I) or Au(0) is expected to be accompanied by spectral changes in the pyrrolic region.
Glutathione can be oxidized to form a disulfide bridged dimer (GSSG) with a mild oxidizing agent such as gold(III) complex. A previous study by Sun et al., Eur. J. Biochem. 267:5450-5457 (2000) established that GSSG is characterized by a doublet absorption peak at δH 3.30 ppm, assignable to β-CH2 group as depicted in Scheme 5. Scheme 5. Characteristic proton resonance absorptions for (a) GSH and (b) GSSG in D2O [drawing 29]
The results of the NMR studies indicate that illustrative Complexes 1a-1k are stable under physiologically relevant conditions.

The test system of series [5] is plasmid DNA (pDR2). The experiment in a line: Restriction endonuclease (ApaI) fragmentation assay. The text has this: Binding of the metalloporphyrin onto a duplex DNA such as plasmid DNA (pDR2) is expected to occupy the binding site of the restriction enzyme ApaI, thereby inhibiting the enzymatic DNA digestion. See Ikeda et al., J. Am. Chem. Soc. 104:296-297 (1982).
After ApaI digestion, (lane B), three bands corresponding to 6.6, 4.4 and 2.0 kbp were observed.

Series [6] has as its target T1, HIV-1 reverse transcriptase (Human immunodeficiency virus type 1 group M subtype B, UniProt P04585).
T1 construct: treatment of HIV-1 RT in Lysis buffer (2 ng, 128.7 μL) with Complex 1j
The series can be described thus: HIV-1 reverse transcriptase activity, ELISA method. The series is classed as biochemical. The settings on record: ELISA; mean ± SE of at least three determinations; read-out: IC50 HIV-1 RT. How it is done:
HIV-1 reverse transcriptase activities were measured by an ELISA method (see Eberle et al, J. Virol. Methods, 40:347-356 (1992) performed by incubating the enzyme with digoxigenin-labeled deoxyuridin-5′-triphosphate (dUTP) and the biotin-labeled analogue during reverse transcription starting from the template/primer hybrid poly(A)•oligo(dT)15. After reverse transcription, the newly synthesized DNA was immobilized onto streptavidin-coated ELISA wells, and the incorporation of the dioxigenin-labeled dUTP was assayed by chemiluminescence method. For example, treatment of HIV-1 RT in Lysis buffer (2 ng, 128.7 μL) with Complex 1j (1.3 μL of […] stock solution) dissolved in TBS at 37° C. produced significant RT activity inhibition (˜95%) after 30 min incubation.
(In general: ELISA stands for enzyme-linked immunosorbent assay.)

Series [7] concerns human cancer cell lines (HL-60, HepG2, HeLa, KB-3-1, KB-V1, SUNE1, CNE1). The series is classed as cell-based. The settings on record: MTT, all studied cell lines; read-out: IC50 values over the panel of cancer cell lines.
Source text: as §1, with “Cell Proliferation Kit I (MTT) was purchased from Roche (Mannheim, Germany).” left out
The anti-cancer activities of the gold(III) porphyrin complexes were evaluated toward some established human cancer cell lines: promyelocytic leukemia (HL-60), hepatocellular carcinoma (HepG2), cervix epitheloid carcinoma (HeLa), epidermoid carcinoma (KB-3-1) and its multi-drug resistant variant (KB-V1), nasopharyngeal carcinoma (SUNE1) and its cisplatin-resistant variant (CNE1). […]

Series [8] deals with Human Oral Epidermoid Carcinoma (KB-3-1). The experiment in a line: MTT cytotoxicity, KB-3-1. It is filed as cell-based. Conditions: MTT, growth inhibition. The text has this:
Human promyelocytic leukemia (HL-60), human hepatocellular carcinoma (HepG2), Human cervix epitheloid carcinoma cells (HeLa) and human oral epidermoid carcinoma cells (KB-3-1), were obtained from American Type Culture Collection (ATCC) (Rockville, Md.). […] Cell culture flasks and 96 well microtitre plates were from Nalge Nunc hit. Culture medium, other medium constituents and phosphate buffered saline (PBS) were obtained from Gibco BRL (Rockville, Md.). Cell Proliferation Kit I (MTT) was purchased from Roche (Mannheim, Germany).

Several values for one entry are separate records, joined by “and”; a condition that tells them apart may be missing. Equal entries are not always repeated.

Consider `C1=Cc2nc1c(-c1ccccc1)c1ccc([n-]1)c(-c1ccccc1)c1nc(c(-c3ccccc3)c3ccc([n-]3)c2-c2ccccc2)C=C1.[Au+3].[Cl-]` [Complex 1a], for which the IC50 in series [1] is 340 nM; in series [3], 730 nM; in series [6], 28400 nM and 28000 nM; in series [7], 100 to 800 nM; in series [8], 200 nM. Moreover, the “cell morphology (type of cell death)” value in series [2] is “living cells and apoptotic cells were observed”. Moreover, the “1H NMR spectral changes” value in series [4] (GSH (2 mM), D2O/CD3CN (9:1 v/v), room temperature) is on record as “no significant spectral changes were observed”. Moreover, the “changes of 1H NMR spectral pattern in the aromatic region (δH 7.2-8.4 ppm)” value in series [4] (with GSH) is listed as “did not observe any significant changes of the spectral pattern”. Further, the “effect on ApaI digestion of pDR2” value is listed as “partial DNA digestion was observed” in series [5] (Complex:DNA = 0.1:1 (lane C)) and “inhibition of the DNA digestion was observed” in series [5] (Complex:DNA bp = 1:1 (lane D)).

The term IC50 denotes the concentration at which inhibition is half-maximal.
